Measurements taken from PubChem BioAssay (NCI).
Where “and” joins values, the source holds several entries; their conditions need not be identical. Identical values can stand only once.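 Cultured in 96-well plates, cells were exposed to test compound for 48 hours across five concentrations. Abbreviation: GI50, concentration required for 50% inhibition of growth. TGI: total growth inhibition.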

Tests used:
Test in all cases: DTP human tumour cell line panel, 48 h
[1] = system: IGROV1 ovarian
[2] = system: TK-10 renal
[3] = system: SK-OV-3 ovarian
[4] = system: PC-3 prostate
[5] = system: NCI/ADR-RES ovarian
[6] = system: U251 CNS
[7] = system: UACC-257 melanoma
[8] = system: CAKI-1 renal
[9] = system: MDA-N
[10] = system: NCI-H226 lung

SMILES	TGI [1]	TGI [2] [µM]	TGI [3] [µM]	TGI [4]	TGI [5] [µM]	TGI [6] [µM]	TGI [7]	TGI [8] [µM]	TGI [9]	TGI [10]	GI50 [10] [µM]	GI50 [1] [µM]	GI50 [3] [µM]	GI50 [5] [µM]	GI50 [6] [µM]	GI50 [7] [µM]	GI50 [8] [µM]	GI50 [2] [µM]	GI50 [4] [µM]
Cc1cc(C(C)(C)C)c(OCCCN2CCOCC2)c(C(C)(C)C)c1	34.2 µM	36.2	35.6	29.9 µM	32	33.2	32 µM	34.5	34 µM	–	–	–	–	–	–	–	–	–	–
COC(=O)C1CC(C=O)=C(SC)N1 (stereo not given)	> 50 µM	> 50	> 50	> 50 µM	> 50	> 50	> 50 µM	> 50	> 50 µM	–	–	–	–	–	–	–	–	–	–
Cc1ccc(Oc2cc(C)ccc2P(=O)(O)O)cc1	> 100 µM	> 100	> 100	> 100 µM	–	–	> 100 µM	> 100	> 100 µM	> 100 µM	–	–	–	–	–	–	–	–	–
C[N+](C)(C)c1nc(N)nc2c1ncn2C1OC(CO)C(O)C1O (stereo not given)	> 100 µM	> 100	> 100	> 100 µM	> 100	> 100	> 100 µM	> 100	> 100 µM	–	–	–	–	–	–	–	–	–	–
O.O=[Se](=O)(O)O.[NH-]C1CCCCC1[NH-].[Pt+2] (stereo not given)	> 100 µM	–	> 100	–	> 100	> 100	> 100 µM	78.6	–	25.7 µM	5.21	7.98	64.8	11.3	37	46.4	4.56	–	–
Nc1ncnc2c(C3OC(CO)C(O)C3O)c[nH]c12 (stereo not given)	0.0637 µM and 0.0661 µM	0.471	–	0.128 µM and 0.324 µM	–	–	0.276 µM and 0.382 µM	0.402	0.158 µM and 0.138 µM	0.271 µM and 0.159 µM	0.0189	–	–	–	–	< 0.0155	–	0.0163	–
Cc1ccc2c(=O)c3c(O)c4c(cc3n(C)c2c1)OC(C)(C)C=C4	> 10 µM	> 10	> 10	> 10 µM	> 10	> 10	> 10 µM	> 10	> 10 µM	> 10 µM	–	–	–	–	–	–	–	–	–
CC1=NN(C(=O)Cc2ccccc2)C(=O)/C1=C\c1cccc(O)c1	–	> 100	–	–	–	> 100	> 100 µM	> 100	–	> 100 µM	–	–	–	–	–	–	–	–	–
Cc1cc(Br)cc(C)c1NC(=O)C(=O)C(C(=O)c1ccc(Cl)c(Cl)c1)C1OC(=O)c2ccccc21 (stereo not given)	> 100 µM	> 100	> 100	–	–	> 100	> 100 µM	> 100	–	> 100 µM	–	–	–	–	–	–	–	–	–
CN1C(C(=O)Nc2ccccn2)=C(O)c2ccccc2S1(=O)=O	–	> 100	> 100	> 100 µM	> 100	> 100	> 100 µM	> 100	> 100 µM	> 100 µM	–	–	–	–	–	–	–	–	–
COc1ccc(CNc2cnc3cc(N)ccc3n2)cc1OC	–	> 100	–	–	–	–	> 100 µM	> 100	–	> 100 µM	–	–	–	–	–	–	–	–	–
COc1ccc(/C(Cl)=C(\C=O)c2ccc(Cl)cc2)cc1	42.1 µM	> 100	> 100	–	–	17.7	77.4 µM	> 100	–	48.1 µM	–	–	–	–	–	–	–	–	–
COc1cccc2c1C(=O)c1c(O)c3c(c(O)c1C2=O)C[C@](O)(C(=O)CO)CC3OC1CC(N)C(OC2CCCCO2)C(C)O1 (stereo not given in full)	11.4 µM	–	8.28	–	41.8	0.899	2.5 µM	18.2	–	0.434 µM	–	–	–	–	–	–	–	–	–
O=c1oc2ccccc2cc1-c1nc2ccccc2s1	18.6 µM	33.5	23.7	> 84.3 µM	–	21.4	–	15.6	> 61.1 µM	33 µM	–	–	–	–	–	–	–	–	–
CCOC(=O)Cn1c(C)nc2nn(Cc3ccccc3)cc2c1=O	> 100 µM	> 100	> 100	> 100 µM	> 100	> 100	–	–	> 100 µM	> 100 µM	–	–	–	–	–	–	–	–	–
CCCCC[C@@H]1OC(=O)[C@@]2(CC3c4ccccc4C2c2ccccc23)[C@H]1C(=O)OC	> 100 µM	> 100	> 100	> 100 µM	> 100	> 100	86.4 µM	> 100	> 100 µM	–	–	–	–	–	–	–	–	–	–
NCCCN1CCN(CCCNc2ccc3ncn4c5ccccc5c(=O)c2c34)CC1	8.17 µM	> 25	> 25	10.8 µM	> 25	> 25	19.1 µM	9.02	4.88 µM	–	–	–	–	–	–	–	–	–	–
Cc1ccc(NC(=O)NC23CC4CC(CC(F)(C4)C2)C3)cc1	> 100 µM	> 100	> 100	–	–	> 100	> 100 µM	–	–	–	–	–	–	–	–	–	–	–	–
CC(=O)Nc1[nH]c(=O)[nH]c(=O)c1N(C(C)=O)C(C)=O	> 100 µM	–	–	–	–	> 100	> 100 µM	> 100	–	> 100 µM	–	–	–	–	–	–	–	–	–
O=c1[nH]nc(Cc2ccc([N+](=O)[O-])cc2)[nH]1	> 100 µM	> 100	–	> 100 µM	> 100	> 100	> 100 µM	> 100	> 100 µM	> 100 µM	–	–	–	–	–	–	–	–	–
C=C1C(=O)OC2C1CC1OC2C(C)CCC/C(C)=C\CCC1(C)O (stereo not given)	49.5 µM	–	119	–	55.2	> 91.1	72.8 µM	61.4	–	51.3 µM	–	–	–	–	–	–	–	–	–
O=C(NNc1ccc([N+](=O)[O-])cc1)C1OC(CO)C(O)C1O (stereo not given)	> 100 µM	> 100	> 100	–	–	> 100	> 100 µM	> 100	–	> 100 µM	–	–	–	–	–	–	–	–	–
O=c1c2cc(Cl)ccc2n2nnc3ccc(NCCNCCO)c1c32	6.26 µM	6.24	6.26	2.75 µM	–	1.94	3.6 µM	4.97	2.32 µM	4.13 µM	–	–	–	–	–	–	–	–	–
Nc1ncc(Cc2nn3c(COc4ccc(Cl)cc4)nnc3s2)s1	> 100 µM	> 100	> 100	> 100 µM	> 100	–	> 100 µM	> 100	–	> 100 µM	–	–	–	–	–	–	–	–	–
Brc1ccc2[nH]cc(-c3nc(-c4c[nH]c5ccncc45)cs3)c2c1	–	3.9	3.03	3.06 µM	–	–	3.46 µM	–	–	–	–	–	1.65	–	–	1.92	–	2.33	1.58
